Experimental data: patent US11813340B2, “PSMA targeted radiohalogenated urea-polyaminocarboxylates for cancer radiotherapy” (The Johns Hopkins University, priority 2018, dated 2023)
Read-outs that look alike come from different tables or passages of the source.

Assays:
[1] = tested on: PSMA+PC3-PIP and PSMA-PC3-flu flank xenografts; test: Biodistribution of [125I/211At]2 and 3 with and without co-injection of DCIBzL (Example 6); type: in vivo, athymic mice
Source text: Final compounds were purified by HPLC.

[2] = tested on: PSMA+PC3-PIP and PSMA-PC3-flu flank xenografts
Experimental: Final compounds were purified by HPLC. […] Organs were harvested 1, 4, and 24 h post-injection (n=5 per time point).

[3] = 1-hour, Blocker VK-02-90 0.5 nmole
[4] = 1-hour, Blocker VK-02-90 1.0 nmole
[5] = 1-hour, Blocker VK-02-90 5.0 nmole
[6] = 1-hour, Blocker YC-I-27 0.5 nmole
[7] = 1-hour, Blocker YC-I-27 1.0 nmole
[8] = 1-hour, Blocker YC-I-27 5 nmole
[9] = 4-hr, Blocker VK-02-90 0.5 nmole
[10] = 4-hr, Blocker VK-02-90 1.0 nmole

**Q.** Which “retention of radioactivity, lacrimal glands (LG)” value ([1]; 1h, no co-injection) does the source give for `O=C([O-])CN1CCN(CC(=O)[O-])CCN(CC(=O)NCCCCC(=O)N(CCCC[C@H](NC(=O)N[C@@H](CCC(=O)O)C(=O)O)C(=O)O)Cc2ccc([125I])cc2)CCN(CC(=O)[O-])CC1.[Lu+3]` [[^125I]VK-02-90-Lu] here?
**A.** 4.1±1.3 % ID/g

**Q.** What about the “retention of radioactivity, salivary glands (SG)” value ([1]; 1h, no co-injection) of the same molecule?
**A.** 1.0±0.3 % ID/g

**Q.** And the “retention of radioactivity, kidneys (K)” value ([1]; 4 h, no co-injection)?
**A.** 18.2±4.9 % ID/g

**Q.** And the “retention of radioactivity, kidneys (K)” value ([1]; 24 h, no co-injection)?
**A.** 3.3±1.1 % ID/g

**Q.** What about the Stomach uptake ([1]; @ 1 h) of the same molecule?
**A.** 1.8±0.2 % ID/g

**Q.** What about the “retention, K” value ([1]; @1 h, co-injection of DCIBzL) of the same molecule?
**A.** 4.2±1.3 % ID/g

**Q.** What about the “retention, LG” value ([1]; @1 h, co-injection of DCIBzL) of the same molecule?
**A.** 0.5±0.1 % ID/g

**Q.** What about the “retention, SG” value ([1]; @1 h, co-injection of DCIBzL) of the same molecule?
**A.** 3.2±0.7 % ID/g

**Q.** And the Stomach uptake ([1]; @ 4 h)?
**A.** 0.8±0.5 % ID/g

**Q.** And the Stomach uptake ([1]; @ 24 h)?
**A.** 0.1±0.04 % ID/g

**Q.** What about the “Biodistribution, Blood” value ([2]; 1-hour, Blocker None) of the same molecule?
**A.** 1.1 ± 0.1 % injected dose/g

**Q.** What about the “Biodistribution, Flu tumor” value ([2]; 1-hour, Blocker None) of the same molecule?
**A.** 1.0 ± 0.2 % injected dose/g

**Q.** What about the “Biodistribution, Kidneys” value ([2]; 1-hour, Blocker None) of the same molecule?
**A.** 129 ± 15 % injected dose/g

**Q.** And the “Biodistribution, Lacrimal glands” value ([2]; 1-hour, Blocker None)?
**A.** 2.1 ± 0.9 % injected dose/g

**Q.** And the “Biodistribution, PIP tumor” value ([2]; 1-hour, Blocker None)?
**A.** 26.0 ± 3.0 % injected dose/g

**Q.** What about the “Biodistribution, Salivary glands” value ([2]; 1-hour, Blocker None) of the same molecule?
**A.** 2.3 ± 0.5 % injected dose/g

**Q.** And the “Biodistribution, Spleen” value ([2]; 1-hour, Blocker None)?
**A.** 4.3 ± 0.9 % injected dose/g

**Q.** What about the “Biodistribution, Stomach” value ([2]; 1-hour, Blocker None) of the same molecule?
**A.** 1.7 ± 0.3 % injected dose/g

**Q.** And the “Biodistribution, Blood” value [2, 3]?
**A.** 0.4 ± 0.1 % injected dose/g

**Q.** What about the “Biodistribution, Flu tumor” value [2, 3] of the same molecule?
**A.** 0.6 ± 0.3 % injected dose/g

**Q.** And the “Biodistribution, Kidneys” value [2, 3]?
**A.** 9.9 ± 2.5 % injected dose/g

**Q.** What about the “Biodistribution, Lacrimal glands” value [2, 3] of the same molecule?
**A.** 0.4 ± 0.1 % injected dose/g

**Q.** What about the “Biodistribution, PIP tumor” value [2, 3] of the same molecule?
**A.** 36.7 ± 6.8 % injected dose/g

**Q.** And the “Biodistribution, Salivary glands” value [2, 3]?
**A.** 0.2 ± 0.03 % injected dose/g

**Q.** What about the “Biodistribution, Spleen” value [2, 3] of the same molecule?
**A.** 1.1 ± 0.4 % injected dose/g

**Q.** And the “Biodistribution, Stomach” value [2, 3]?
**A.** 0.2 ± 0.1 % injected dose/g

**Q.** And the “Biodistribution, Blood” value [2, 4]?
**A.** 0.4 ± 0.1 % injected dose/g

**Q.** What about the “Biodistribution, Flu tumor” value [2, 4] of the same molecule?
**A.** 0.5 ± 0.1 % injected dose/g

**Q.** What about the “Biodistribution, Kidneys” value [2, 4] of the same molecule?
**A.** 6.5 ± 0.9 % injected dose/g

**Q.** And the “Biodistribution, Lacrimal glands” value [2, 4]?
**A.** 0.4 ± 0.1 % injected dose/g

**Q.** And the “Biodistribution, PIP tumor” value [2, 4]?
**A.** 35.1 ± 9.0 % injected dose/g

**Q.** And the “Biodistribution, Salivary glands” value [2, 4]?
**A.** 0.2 ± 0.06 % injected dose/g

**Q.** And the “Biodistribution, Spleen” value [2, 4]?
**A.** 1.1 ± 0.4 % injected dose/g

**Q.** And the “Biodistribution, Stomach” value [2, 4]?
**A.** 0.2 ± 0.04 % injected dose/g

**Q.** And the “Biodistribution, Blood” value [2, 5]?
**A.** 0.5 ± 0.1 % injected dose/g

**Q.** What about the “Biodistribution, Flu tumor” value [2, 5] of the same molecule?
**A.** 0.9 ± 0.3 % injected dose/g

**Q.** And the “Biodistribution, Kidneys” value [2, 5]?
**A.** 4.2 ± 0.5 % injected dose/g

**Q.** What about the “Biodistribution, Lacrimal glands” value [2, 5] of the same molecule?
**A.** 0.4 ± 0.03 % injected dose/g

**Q.** What about the “Biodistribution, PIP tumor” value [2, 5] of the same molecule?
**A.** 23.5 ± 4.3 % injected dose/g

**Q.** What about the “Biodistribution, Salivary glands” value [2, 5] of the same molecule?
**A.** 0.3 ± 0.1 % injected dose/g

**Q.** What about the “Biodistribution, Spleen” value [2, 5] of the same molecule?
**A.** 0.7 ± 0.2 % injected dose/g

**Q.** And the “Biodistribution, Stomach” value [2, 5]?
**A.** 0.2 ± 0.06 % injected dose/g

**Q.** And the “Biodistribution, Blood” value [2, 6]?
**A.** 1.1 ± 0.1 % injected dose/g

**Q.** And the “Biodistribution, Flu tumor” value [2, 6]?
**A.** 1.0 ± 0.3 % injected dose/g

**Q.** And the “Biodistribution, Kidneys” value [2, 6]?
**A.** 4.2 ± 1.3 % injected dose/g

**Q.** And the “Biodistribution, Lacrimal glands” value [2, 6]?
**A.** 0.5 ± 0.1 % injected dose/g

**Q.** What about the “Biodistribution, PIP tumor” value [2, 6] of the same molecule?
**A.** 41.8 ± 4.2 % injected dose/g

**Q.** And the “Biodistribution, Salivary glands” value [2, 6]?
**A.** 3.2 ± 0.7 % injected dose/g

**Q.** And the “Biodistribution, Spleen” value [2, 6]?
**A.** 0.8 ± 0.2 % injected dose/g

**Q.** What about the “Biodistribution, Stomach” value [2, 6] of the same molecule?
**A.** 1.8 ± 0.2 % injected dose/g

**Q.** What about the “Biodistribution, Blood” value [2, 7] of the same molecule?
**A.** 1.0 ± 0.1 % injected dose/g

**Q.** And the “Biodistribution, Flu tumor” value [2, 7]?
**A.** 0.8 ± 0.2 % injected dose/g

**Q.** What about the “Biodistribution, Kidneys” value [2, 7] of the same molecule?
**A.** 2.4 ± 0.8 % injected dose/g

**Q.** And the “Biodistribution, Lacrimal glands” value [2, 7]?
**A.** 0.6 ± 0.05 % injected dose/g

**Q.** And the “Biodistribution, PIP tumor” value [2, 7]?
**A.** 29.1 ± 2.4 % injected dose/g

**Q.** What about the “Biodistribution, Salivary glands” value [2, 7] of the same molecule?
**A.** 2.9 ± 0.4 % injected dose/g

**Q.** And the “Biodistribution, Spleen” value [2, 7]?
**A.** 0.6 ± 0.1 % injected dose/g

**Q.** And the “Biodistribution, Stomach” value [2, 7]?
**A.** 1.8 ± 0.3 % injected dose/g

**Q.** What about the “Biodistribution, Blood” value [2, 8] of the same molecule?
**A.** 1.1 ± 0.2 % injected dose/g

**Q.** And the “Biodistribution, Flu tumor” value [2, 8]?
**A.** 0.8 ± 0.2 % injected dose/g

**Q.** And the “Biodistribution, Kidneys” value [2, 8]?
**A.** 2.3 ± 0.7 % injected dose/g

**Q.** And the “Biodistribution, Lacrimal glands” value [2, 8]?
**A.** 1.1 ± 0.6 % injected dose/g

**Q.** What about the “Biodistribution, PIP tumor” value [2, 8] of the same molecule?
**A.** 20.1 ± 2.8 % injected dose/g

**Q.** What about the “Biodistribution, Salivary glands” value [2, 8] of the same molecule?
**A.** 5.1 ± 1.7 % injected dose/g

**Q.** What about the “Biodistribution, Spleen” value [2, 8] of the same molecule?
**A.** 0.7 ± 0.1 % injected dose/g

**Q.** And the “Biodistribution, Stomach” value [2, 8]?
**A.** 2.2 ± 0.7 % injected dose/g

**Q.** And the “Biodistribution, Blood” value ([2]; 4-hr, Blocker None)?
**A.** 0.3 ± 0.2 % injected dose/g

**Q.** And the “Biodistribution, Flu tumor” value ([2]; 4-hr, Blocker None)?
**A.** 0.25 ± 0.1 % injected dose/g

**Q.** What about the “Biodistribution, Kidneys” value ([2]; 4-hr, Blocker None) of the same molecule?
**A.** 9.5 ± 2.5 % injected dose/g

**Q.** And the “Biodistribution, Lacrimal glands” value ([2]; 4-hr, Blocker None)?
**A.** 0.4 ± 0.2 % injected dose/g

**Q.** And the “Biodistribution, PIP tumor” value ([2]; 4-hr, Blocker None)?
**A.** 27.4 ± 7.5 % injected dose/g

**Q.** What about the “Biodistribution, Salivary glands” value ([2]; 4-hr, Blocker None) of the same molecule?
**A.** 1.8 ± 0.2 % injected dose/g

**Q.** And the “Biodistribution, Spleen” value ([2]; 4-hr, Blocker None)?
**A.** 0.6 ± 0.2 % injected dose/g

**Q.** What about the “Biodistribution, Stomach” value ([2]; 4-hr, Blocker None) of the same molecule?
**A.** 0.8 ± 0.5 % injected dose/g

**Q.** What about the “Biodistribution, Blood” value [2, 9] of the same molecule?
**A.** 0.02 ± 0.01 % injected dose/g

**Q.** What about the “Biodistribution, Flu tumor” value [2, 9] of the same molecule?
**A.** 0.1 ± 0.02 % injected dose/g

**Q.** What about the “Biodistribution, Kidneys” value [2, 9] of the same molecule?
**A.** 2.1 ± 0.7 % injected dose/g

**Q.** And the “Biodistribution, Lacrimal glands” value [2, 9]?
**A.** 0.1 ± 0.03 % injected dose/g

**Q.** And the “Biodistribution, PIP tumor” value [2, 9]?
**A.** 24.8 ± 2.0 % injected dose/g

**Q.** And the “Biodistribution, Salivary glands” value [2, 9]?
**A.** 0.08 ± 0.04 % injected dose/g

**Q.** What about the “Biodistribution, Spleen” value [2, 9] of the same molecule?
**A.** 0.2 ± 0.1 % injected dose/g

**Q.** And the “Biodistribution, Stomach” value [2, 9]?
**A.** 0.06 ± 0.01 % injected dose/g

**Q.** And the “Biodistribution, Blood” value [2, 10]?
**A.** 0.2 ± 0.01 % injected dose/g

**Q.** And the “Biodistribution, Flu tumor” value [2, 10]?
**A.** 0.1 ± 0.03 % injected dose/g

**Q.** What about the “Biodistribution, Kidneys” value [2, 10] of the same molecule?
**A.** 1.4 ± 0.4 % injected dose/g

**Q.** What about the “Biodistribution, Lacrimal glands” value [2, 10] of the same molecule?
**A.** 0.1 ± 0.05 % injected dose/g
